According to patent publication US4359466A, “Guanidine compounds” (Smith Kline & French Laboratories Limited, priority 1980, dated 1982):

Tested on: histamine H2 -receptors
Assay: inhibition of histamine-stimulated secretion of gastric acid from the lumen-perfused stomachs of rats anaesthetised with urethane
Type: in vivo
Conditions: i.v., lumen-perfused stomach of urethane-anaesthetised rats

With N=C(N)Nc1nc(CSCCNc2[nH]ccc2[N+](=O)[O-])cs1 [Example 1, 2-[2-(2-Guanidino-4-thiazolylmethylthio)ethylamino]-3-nitropyrrole] the “dose causing 50% inhibition of maximal acid secretion” value was “less than 0.1 micromole kg^-1”.
